Experimental data reported in US20190223450A1, “MICROALGAE EXTRACT FOR AGRICULTURAL USE” (priority 2015, published 2019).

Key:
[1] = test system: pathogenesis-related (PR) proteins; assay: Induced resistance in vine: resistance-linked metabolites and pathogenesis-related (PR) proteins; format: in vivo, vine plants; details: for production of metabolites linked to resistance phenomena / response: vine plants
Method: (§1) The efficacy of the treatments using the products listed above was assessed on the basis of the induced resistance using foliar discs and potted vine plants. The rate of induced resistance was determined on the basis of the increase in the content of pathogenesis-related (PR) proteins including: peroxidase, polyphenoloxidase, Beta 1,3-glucanase, phenylalanine ammonia-lyase, stilbene synthase, PR-1 protein and caffeoyl coenzyme A-3-O-methyltransferase.

[2] = test system: zoospores; assay: Inhibition of zoospores (mobility); set-up: species or system Plasmopara viticola
[3] = test system: Plasmopara viticola; assay: Protection of vine foliar discs and potted vine plants against Plasmopara viticola (peronospora); format: in vivo; details: vine plants affected by peronospora
Method: The field tests were performed on vine plants affected by peronospora. The potential of certain biocontrol and plant extract products for protection against Plasmopara viticola (peronospora) was also assessed, since some chemical and natural substances can reduce the plants' susceptibility. In particular, comparisons were performed on the use of commercial products or experimental products: • EXPERIMENTAL PRODUCT 1 (EP1) yeast extract • EXPERIMENTAL PRODUCT 2 (EP2) plant extract • EXPERIMENTAL PRODUCT 3 (EP3) Aureobasidium pullulans • CANG extract of Solidago canadensis • P E N extract of mycelium of Penicillium crysogenum • LIN linoleic acid • BABA—chemical elicitors of 3-dl-β-aminobutyric acid • BTH—chemical elicitors of benzothiadiazole • CP—comparator product: extract of microalgae • MBGPT1—alginate extract of Phaeodactylum tricornutum obtained according to the method described above • chrysolaminarin from microalga
as §1

| Structure (SMILES) | production of metabolites linked to resistance phenomena / response [1] | formation of necrotic spots and PR proteins ([1]; immediately after inoculation) | inhibition of the zoospores (mobility) [2] | protection [3] |
| --- | --- | --- | --- | --- |
| c1ccc2snnc2c1 [BTH, benzothiadiazole] | induced the production of a wide range of metabolites linked to resistance phenomena |  |  |  |
| CC(N)CC(=O)O (racemic) [BABA, 3-dl-β-aminobutyric acid] |  | caused the formation of necrotic spots and PR proteins immediately after inoculation | unable to inhibit the zoospores |  |
| CCCCC/C=C\C/C=C\CCCCCCCC(=O)O [LIN, linoleic acid] | induced the production of a wide range of metabolites linked to resistance phenomena |  |  | insignificant protection |
